Test results published in patent US11560374B2, “Morpholinylpyridone compounds” (Sprint Bioscience AB, priority 2017, dated 2023).

What was measured:
[1] = tested on: autophagy in HOS cells (GFP-LC3); assay: High Content Screening Autophagy Assay (GFP-LC3 foci); format: cell-based; details: Homo sapiens; HOS cells expressing GFP-LC3; autophagy activated with KU-0063794 500 nM and Bafilomycin A1 5 nM; 6 hours; foci area per cell; read-out: Median IC50 nM Cellular assay (HOS-LC3)
Procedure: Human osteosarcoma cells (HOS) stably expressing a Green Fluorescent Protein (GFP) tagged LC3 (GFP-LC3) were used to determine the inhibitory effect on autophagy of proprietary compounds. For that purpose, autophagy was activated by using the mTOR inhibitor KU-0063794 at 500 nM in the presence of Bafilomycin A1 (Sigma-Aldrich) at 5 nM. Shortly, cells were plated overnight in clear bottom 96-well plates in DMEM-High Modified media (Hi-Clone Cat #SH30285.01). At the start of the experiment, the media was removed and replaced with fresh media containing the mTOR inhibitor, Bafilomycin A1 and the vehicle or a test compound as indicated. After 6 hours the media was removed, cells were washed twice with ice-cold phosphate buffered saline (PBS) and fixed with 4% paraformaldehyde for 20 minutes at room temperature. Then the cells were washed twice with ice-cold PBS before adding Hoechst 33342 at 1 μg/ml in PBS for nuclear staining. After incubation overnight at 4° C., cells were washed once with PBS to remove the excess of dye and 100 μl of PBS was added to each well. Images were acquired at 20× magnification, 6 images per well, using the ImageXpress automated microscope (Molecular Devices Inc.) and analyzed with MetaXpress software to identify LC3-GFP foci. Foci area per cell values were used to generate dose response curves and IC50 values were calculated using the non-linear fitting analysis in GraphPad Prism software. […] The results of the assay are shown in Table 2 (Median IC50 nM HOS-LC3).

Vps34 enzyme = Vps34 enzyme (Homo sapiens (Human), UniProt Q8NEB9); assay: Vps34 Biochemical Assay (Adapta kinase assay); details: 20 μM ATP and 200 μM PI:PS substrate mix, 1 h at room temperature, TR-FRET, read-out: Median IC50 nM Adapta
Procedure: Dilution series of compounds of the invention were prepared in DMSO at 100 times the final assay concentration (n1=n0/3 in 10 points). The compounds were further diluted to 4 times the assay concentration in assay buffer (Life technologies buffer Q, PV5125, diluted 5 times supplemented with 2 mM DTT and 2 mM MnCl2). 2.5 μl of the diluted compounds were added to a 384 well assay plate followed by 2.5 μl of 16.5 nM Vps34 enzyme (Life technologies, PV5126). Enzyme and compounds were pre-incubated at rt for 15 min. Then 5 μl of substrate mix containing 20 μM ATP (Life technologies, PV3227) and 200 μM PI:PS substrate (Life technologies, PV5122) in assay buffer was added to the wells containing compound and enzyme. Mixing was performed by pipetting several times. The reaction was incubated at room temperature for 1 h. Then 5 μl stop-detection mix, prepared as described in the Adapta kinase assay kit instructions (Life technologies, PV5099) containing Adapta Eu-anti-ADP antibody (2.3 nM), Alexa Fluor 647 ADP tracer (9 nM) and EDTA (30 mM) in TR-FRET buffer, was added to quench the reaction. Mixing was performed by pipetting several times. The assay plate was then incubated at room temperature for 30 min and read with Artemis micro plate reader. Percent inhibition of the compounds as compared to DMSO treated control samples was calculated. By the use of Dotmatics software compound concentration versus percent inhibition was fitted to generate IC50 values.

Sequence of Vps34 enzyme (Q8NEB9 whole entry): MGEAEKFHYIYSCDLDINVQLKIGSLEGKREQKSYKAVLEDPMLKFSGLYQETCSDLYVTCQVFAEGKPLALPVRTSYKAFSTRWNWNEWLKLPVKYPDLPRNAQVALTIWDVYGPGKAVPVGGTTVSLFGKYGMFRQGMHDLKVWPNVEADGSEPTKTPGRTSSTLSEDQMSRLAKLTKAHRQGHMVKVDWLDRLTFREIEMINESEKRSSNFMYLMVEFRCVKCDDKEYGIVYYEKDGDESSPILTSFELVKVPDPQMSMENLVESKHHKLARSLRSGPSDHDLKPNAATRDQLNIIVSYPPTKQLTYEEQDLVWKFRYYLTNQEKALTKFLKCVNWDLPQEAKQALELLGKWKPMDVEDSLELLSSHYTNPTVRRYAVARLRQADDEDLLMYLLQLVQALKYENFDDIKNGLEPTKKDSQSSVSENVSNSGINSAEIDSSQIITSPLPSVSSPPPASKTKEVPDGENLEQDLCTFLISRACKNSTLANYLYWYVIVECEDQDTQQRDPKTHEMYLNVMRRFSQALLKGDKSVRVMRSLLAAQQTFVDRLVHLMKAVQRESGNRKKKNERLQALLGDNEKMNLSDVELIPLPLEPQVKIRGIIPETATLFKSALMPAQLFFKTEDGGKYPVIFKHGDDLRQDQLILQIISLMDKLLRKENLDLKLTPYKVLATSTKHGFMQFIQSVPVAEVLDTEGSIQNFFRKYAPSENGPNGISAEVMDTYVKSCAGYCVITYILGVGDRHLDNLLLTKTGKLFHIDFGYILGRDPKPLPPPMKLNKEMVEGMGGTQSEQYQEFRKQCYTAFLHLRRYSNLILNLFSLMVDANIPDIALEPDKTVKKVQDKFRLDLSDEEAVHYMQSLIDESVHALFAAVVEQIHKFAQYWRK

| IC50 [1] | IC50 (Vps34 enzyme) | Structure (SMILES) |
| --- | --- | --- |
| 33 nM | < 5 nM | C[C@@H]1COCCN1c1cc(N2CCN(S(C)(=O)=O)CC2C(F)(F)F)[nH]c(=O)c1 (single isomer, unassigned) [Example 6-1] |
|  | 15 nM | C[C@@H]1COCCN1c1cc(N2CCN(S(C)(=O)=O)CC2C(F)(F)F)[nH]c(=O)c1 (single isomer, unassigned) [Example 6-2] |
| 12 nM | < 5 nM | C[C@@H]1COCCN1c1cc(N2CCN(S(=O)(=O)Cc3ccc(F)cc3)CC2C(F)(F)F)[nH]c(=O)c1 (stereo partly drawn) [Example 8, 6-[4-[(4-Fluorophenyl)methylsulfonyl]-2-(trifluoromethyl)piperazin-1-yl]-4-[(3R)-3-methylmorpholin-4-yl]-1H-pyridin-2-one] |
| 106 nM | < 5 nM | C[C@@H]1COCCN1c1cc(N2CCN(S(=O)(=O)c3cncc(F)c3)CC2C(F)(F)F)[nH]c(=O)c1 (stereo partly drawn) [Example 10, 6-[4-[(5-Fluoro-3-pyridyl)sulfonyl]-2-(trifluoromethyl)piperazin-1-yl]-4-[(3R)-3-methylmorpholin-4-yl]-1H-pyridin-2-one] |
| 55 nM | < 5 nM | C[C@@H]1COCCN1c1cc(N2CCN(S(=O)(=O)C3CCOC3)CC2C(F)(F)F)[nH]c(=O)c1 (stereo partly drawn) [Example 12, 4-[(3R)-3-methylmorpholin-4-yl]-6-[4-tetrahydrofuran-3-ylsulfonyl-2-(trifluoromethyl)piperazin-1-yl]-1H-pyridin-2-one] |
|  | < 5 nM | C[C@@H]1COCCN1c1cc(N2CCN(S(=O)(=O)N3CCCC3)CC2C(F)(F)F)[nH]c(=O)c1 (stereo partly drawn) [Example 14, 4-[(3R)-3-methylmorpholin-4-yl]-6-[4-pyrrolidin-1-ylsulfonyl-2-(trifluoromethyl)piperazin-1-yl]-1H-pyridin-2-one] |
| 17 nM | < 5 nM | C[C@@H]1COCCN1c1cc(N2CCN(S(=O)(=O)N(C)C)CC2C(F)(F)F)[nH]c(=O)c1 (stereo partly drawn) [Example 16, N,N-dimethyl-4-[4-[(3R)-3-methylmorpholin-4-yl]-6-oxo-1H-pyridin-2-yl]-3-(trifluoromethyl)piperazine-1-sulfonamide] |
| 83 nM | < 5 nM | COCCS(=O)(=O)N1CCN(c2cc(N3CCOC[C@H]3C)cc(=O)[nH]2)C(C(F)(F)F)C1 (stereo partly drawn) [Example 18, 6-[4-(2-Methoxyethylsulfonyl)-2-(trifluoromethyl)piperazin-1-yl]-4-[(3R)-3-methylmorpholin-4-yl]-1H-pyridin-2-one] |
| 223 nM | < 5 nM | C[C@@H]1COCCN1c1cc(N2CCN(S(=O)(=O)c3ccc(F)cc3)CC2C(F)(F)F)[nH]c(=O)c1 (stereo partly drawn) [Example 20, 6-[4-(4-Fluorophenyl)sulfonyl-2-(trifluoromethyl)piperazin-1-yl]-4-[(3R)-3-methylmorpholin-4-yl]-1H-pyridin-2-one] |
| 95 nM |  | C[C@@H]1COCCN1c1cc(N2CCN(S(=O)(=O)c3ccnn3C)CC2C(F)(F)F)[nH]c(=O)c1 (stereo partly drawn) [Example 22, 4-[(3R)-3-methylmorpholin-4-yl]-6-[4-(2-methylpyrazol-3-yl)sulfonyl-2-(trifluoromethyl)piperazin-1-yl]-1H-pyridin-2-one] |
| 28 nM |  | C[C@@H]1COCCN1c1cc(N2CCN(S(=O)(=O)C3CC3)CC2C(F)(F)F)[nH]c(=O)c1 (stereo partly drawn) [Example 24, 6-[4-Cyclopropylsulfonyl-2-(trifluoromethyl)piperazin-1-yl]-4-[(3R)-3-methylmorpholin-4-yl]-1H-pyridin-2-one] |
| 139 nM | < 5 nM | C[C@@H]1COCCN1c1cc(N2CCN(S(=O)(=O)N3CCCCC3)CC2C(F)(F)F)[nH]c(=O)c1 (stereo partly drawn) [Example 26, 4-[(3R)-3-methylmorpholin-4-yl]-6-[4-(1-piperidylsulfonyl)-2-(trifluoromethyl)piperazin-1-yl]-1H-pyridin-2-one] |
| 248 nM |  | C[C@@H]1COCCN1c1cc(N2CCN(S(=O)(=O)N3CCOCC3)CC2C(F)(F)F)[nH]c(=O)c1 (stereo partly drawn) [Example 28, 4-[(3R)-3-methylmorpholin-4-yl]-6-[4-morpholinosulfonyl-2-(trifluoromethyl)piperazin-1-yl]-1H-pyridin-2-one] |
| 84 nM | < 5 nM | Cc1nc(S(=O)(=O)N2CCN(c3cc(N4CCOC[C@H]4C)cc(=O)[nH]3)C(C(F)(F)F)C2)cn1C (stereo partly drawn) [Example 30, 6-[4-(1,2-Dimethylimidazol-4-yl)sulfonyl-2-(trifluoromethyl)piperazin-1-yl]-4-[(3R)-3-methylmorpholin-4-yl]-1H-pyridin-2-one] |
|  | < 5 nM | C[C@@H]1COCCN1c1cc(N2CCN(S(=O)(=O)C3(C)CC3)CC2C(F)(F)F)[nH]c(=O)c1 (stereo partly drawn) [Example 31, 6-[4-(1-methylcyclopropyl)sulfonyl-2-(trifluoromethyl)piperazin-1-yl]-4-[(3R)-3-methylmorpholin-4-yl]-1H-pyridin-2-one] |
| 491 nM | < 5 nM | C[C@@H]1COCCN1c1cc(-c2ccc(S(C)(=O)=O)cc2C(F)(F)F)[nH]c(=O)c1 [Example 33, 4-[(3R)-3-methylmorpholin-4-yl]-6-[4-methylsulfonyl-2-(trifluoromethyl)phenyl]-1H-pyridin-2-one] |
| 458 nM | < 5 nM | C[C@@H]1COCCN1c1cc(-c2ccc(S(=O)(=O)N(C)C)cc2C(F)(F)F)[nH]c(=O)c1 [Example 35, N,N-dimethyl-4-[4-[(3R)-3-methylmorpholin-4-yl]-6-oxo-1H-pyridin-2-yl]-3-(trifluoromethyl)benzenesulfonamide] |
